Drawing on patent publication US9326513B2, “Fungicidal compositions” (Syngenta Participations AG, priority 2011, dated 2016), this text covers pest or weed control for 55 compounds.

What all share (format): in vivo
Holding throughout (conditions): foliar, compared to untreated control leaf disks, read-out: disease control

For experiment [1], the system named is Puccinia recondita f. sp. tritici. The experiment can be described thus: Puccinia recondita f. sp. tritici / wheat / leaf disc curative (brown rust). The procedure:
Puccinia recondita f. sp. tritici/Wheat/Leaf Disc Curative (Brown Rust) Wheat leaf segments cv. Kanzler are placed on agar in multiwell plates (24-well format). The leaf segments are inoculated with a spore suspension of the fungus. Plates were stored in darkness at 19° C. and 75% rh. The formulated test compound diluted in water was applied 1 day after inoculation.

Experiment [2] has the same test system. The experiment can be described thus: Puccinia recondita f. sp. tritici / wheat / leaf disc preventative (brown rust). An excerpt:
Puccinia recondita f. sp. tritici/Wheat/Leaf Disc Preventative (Brown Rust) Wheat leaf segments cv. Kanzler were placed on agar in multiwell plates (24-well format) and sprayed with the formulated test compound diluted in water. The leaf disks were inoculated with a spore suspension of the fungus 1 day after application.

For experiment [3], the system named is Blumeria graminis f. sp. tritici (Erysiphe graminis f. sp. tritici). The experiment can be described thus: Blumeria graminis f. sp. tritici / wheat / leaf disc preventative (powdery mildew on wheat). The procedure:
Blumeria graminis f. sp. tritici (Erysiphe graminis f. sp. tritici)/Wheat/Leaf Disc Preventative (Powdery Mildew on Wheat)
Wheat leaf segments cv. Kanzler were placed on agar in a multiwell plate (24-well format) and sprayed with the formulated test compound diluted in water. The leaf disks were inoculated by shaking powdery mildew infected plants above the test plates 1 day after application. The inoculated leaf disks were incubated at 20° C. and 60% rh under a light regime of 24 h darkness followed by 12 h light/12 h darkness in a climate chamber and the activity of a compound was assessed as percent disease control compared to untreated when an appropriate level of disease damage appears on untreated check leaf segments (6-8 days after application).
The following compounds gave at 200 ppm give at least 50% disease control in this test when compared to untreated control leaf disks under the same conditions, which show extensive disease development: […]

In the case of `CCN(C)/C=N/c1cc(Br)c(OC2CCC(=O)CC2C)nc1C` (single isomer, unassigned) [Q.332], the pest or weed control at 200 ppm in experiment [1], in experiment [2] and in experiment [3] was at least 50% throughout.
For `CN/C=N/c1cc(Br)c(OCCCC(C)C)nc1C` [Q.003], the pest or weed control at 200 ppm in experiment [2] is at least 50%.
As to `Cc1nc(OCCCC(C)C)c(Br)cc1/N=C/N(C)C` [Q.006], the pest or weed control at 200 ppm in experiment [1], in experiment [2] and in experiment [3] was at least 50% in each case.
Turning to `Cc1nc(OCCCC(C)C)c(Br)cc1/N=C/NC(C)C` [Q.008], the pest or weed control at 200 ppm in experiment [2] was at least 50%.
Take `Cc1nc(OCCCC(C)C)c(Br)cc1/N=C/NC(C)(C)C` [Q.009]: the pest or weed control at 200 ppm in experiment [2] is at least 50%.
As to `CCCN/C=N/c1cc(Br)c(OCCCC(C)C)nc1C` [Q.010], the pest or weed control at 200 ppm in experiment [1], in experiment [2] and in experiment [3] was at least 50% each time.
In the case of `CCN(C)/C=N/c1cc(Br)c(OCCCC2CCCCC2)nc1C` [Q.017], the pest or weed control at 200 ppm in experiment [2] and in experiment [3] was at least 50% in each case.
`CCN(C)/C=N/c1cc(Br)c(OC2Cc3cc(Br)c(Br)cc3C2)nc1C` [Q.030]: the pest or weed control at 200 ppm in experiment [1], in experiment [2] and in experiment [3] was at least 50% in each case.
As for `CCN(C)/C=N/c1cc(Br)c(OC2CCC(=O)CC2)nc1C` [Q.031], the pest or weed control at 200 ppm in experiment [1], in experiment [2] and in experiment [3] was at least 50% in each case.
Turning to `CCN(C)/C=N/c1cc(Br)c(OCCCC(O)COC)nc1C` (centres unmarked) [Q.036], the pest or weed control at 200 ppm in experiment [1], in experiment [2] and in experiment [3] was at least 50% each time.
On to `CCN(C)/C=N/c1cc(Br)c(OCCCCc2ccc(Cl)cc2)nc1C` [Q.045], for which the pest or weed control at 200 ppm in experiment [1], in experiment [2] and in experiment [3] was at least 50% throughout.
`CCN(C)/C=N/c1cc(Br)c(OC2CCCc3ccc(F)cc32)nc1C` (centres unmarked) [Q.048]: the pest or weed control at 200 ppm in experiment [1], in experiment [2] and in experiment [3] was at least 50% in each case.
For the compound `CCN(C)/C=N/c1cc(Br)c(OC2CCCC3CCCCC32)nc1C` (centres unmarked) [Q.049], the pest or weed control at 200 ppm in experiment [1], in experiment [2] and in experiment [3] was at least 50% in each case.
Consider `CCN(C)/C=N/c1cc(Br)c(OC2CCc3c(OC)cccc32)nc1C` (centres unmarked) [Q.050], for which the pest or weed control at 200 ppm in experiment [1], in experiment [2] and in experiment [3] was at least 50% each time.
Regarding `CCN(C)/C=N/c1cc(Br)c(OCCO)nc1C` [Q.056], the pest or weed control at 200 ppm in experiment [2] is at least 50%.
On to `CCCCCCCCCCOc1nc(C)c(/N=C/N(C)CC)cc1C` [Q.058], for which the pest or weed control at 200 ppm in experiment [1], in experiment [2] and in experiment [3] was at least 50% throughout.
Consider `CCN(C)/C=N/c1cc(Br)c(OCCCC(CCl)OC=O)nc1C` (centres unmarked) [Q.060], for which the pest or weed control at 200 ppm in experiment [1], in experiment [2] and in experiment [3] was at least 50% each time.
As for `CCN(C)/C=N/c1cc(Br)c(OCCOCOC)nc1C` [Q.061], the pest or weed control at 200 ppm in experiment [2] was at least 50%.
The same measure, in the same setting: the same measure for `CCN(C)/C=N/c1cc(Br)c(OC2CC(C)CCC2C(C)C)nc1C` (centres unmarked) [Q.083]: at least 50%.
Consider `CCN(C)/C=N/c1cc(Br)c(OCc2ccc(Cl)cc2Cl)nc1C` [Q.096], for which the pest or weed control at 200 ppm in experiment [1] and in experiment [2] was at least 50% each time.
Take `CCN(C)/C=N/c1cc(Br)c(OCc2cc(-c3ccccc3)ns2)nc1C` [Q.107]: the pest or weed control at 200 ppm in experiment [2] is at least 50%.
In the case of `CCN(C)/C=N/c1cc(Br)c(OCc2snc(-c3ccccc3)c2Br)nc1C` [Q.108], the pest or weed control at 200 ppm in experiment [2] and in experiment [3] was at least 50% in each case.
`CCN(C)/C=N/c1cc(Br)c(OC2CCCc3ccccc32)nc1C` (centres unmarked) [Q.138]: the pest or weed control at 200 ppm in experiment [2] is at least 50%.
`CCN(C)/C=N/c1cc(Br)c(OC2Cc3ccc(-c4ccccc4)cc3C2)nc1C` (centres unmarked) [Q.142]: the pest or weed control at 200 ppm in experiment [2] and in experiment [3] was at least 50% each time.
For the compound `CCCC(CCC)Oc1nc(C)c(/N=C/N(C)CC)cc1Br` [Q.150], in experiment [2], the pest or weed control at 200 ppm was at least 50%.
The same measure, in the same setting: under `CCN(C)/C=N/c1cc(Br)c(OCc2snc(-c3ccc(F)cc3)c2C#N)nc1C` [Q.157] stands at least 50%.
`CCN(C)/C=N/c1cc(Br)c(OC2CCNCC2)nc1C` [Q.159]: the pest or weed control at 200 ppm in experiment [1] and in experiment [2] was at least 50% throughout.
As to `CCN(C)/C=N/c1cc(Br)c(OC2C=C(C)CCC2)nc1C` (centres unmarked) [Q.173], the pest or weed control at 200 ppm in experiment [2] is at least 50%.
Regarding `CCN(C)/C=N/c1ccc(O[C@H]2CC[C@H](C(C)C)CC2)nc1C` [Q.182], the pest or weed control at 200 ppm in experiment [1] and in experiment [2] was at least 50% throughout.
`CCN(/C=N/c1cc(Br)c(OC(C)c2cc(F)cc(F)c2)nc1C)CC` (centres unmarked) [Q.187]: the pest or weed control at 200 ppm in experiment [2] and in experiment [3] was at least 50% in each case.
For the compound `C#CCN(C)/C=N/c1cc(Br)c(OC(C)c2cc(F)cc(F)c2)nc1C` (centres unmarked) [Q.189], the pest or weed control at 200 ppm in experiment [2] is at least 50%.
For `C#CC(C)N(C)/C=N/c1cc(Br)c(OC(C)c2cc(F)cc(F)c2)nc1C` (centres unmarked) [Q.190], the pest or weed control at 200 ppm in experiment [2] was at least 50%.
For the compound `Cc1nc(OC(C)c2cc(F)cc(F)c2)c(Br)cc1/N=C/N1CC=CC1` (centres unmarked) [Q.194], the pest or weed control at 200 ppm in experiment [1] and in experiment [2] was at least 50% in each case.
Regarding `CCN(C)/C=N/c1cc(Br)c(OCc2snc(-c3ccccc3)c2C#N)nc1C` [Q.210], in experiment [2], the pest or weed control at 200 ppm was at least 50%.
Still for that read-out and setting: under `CCN(C)/C=N/c1cc(Br)c(OC(CC(C)C)CC(C)C)nc1C` [Q.234] stands at least 50%.
As to `CC#Cc1cc(/N=C/N(C)CC)c(C)nc1OC1CCC(C(C)C)CC1` (centres unmarked) [Q.254], the pest or weed control at 200 ppm in experiment [1] and in experiment [2] was at least 50% each time.
Take `CCN(C)/C=N/c1cc([Si](C)(C)C)c(OCc2ccccc2C)nc1C` [Q.257]: the pest or weed control at 200 ppm in experiment [1] and in experiment [2] was at least 50% each time.
Regarding `CCN(C)/C=N/c1cc([Si](CC)(CC)CC)c(OCc2ccccc2C)nc1C` [Q.258], the pest or weed control at 200 ppm in experiment [1] and in experiment [2] was at least 50% throughout.
Regarding `CCC[Si](CCC)(CCC)c1cc(/N=C/N(C)CC)c(C)nc1OCc1ccccc1C` [Q.259], the pest or weed control at 200 ppm in experiment [2] is at least 50%.
For the compound `CCN(C)/C=N/c1cc(-c2ccc(F)cc2)c(OC(C)c2cc(F)cc(F)c2)nc1C` (centres unmarked) [Q.264], the pest or weed control at 200 ppm in experiment [2] is at least 50%.
Same read-out and setting: under `CCN(C)/C=N/c1cc(-c2cccnc2)c(OC(C)c2cc(F)cc(F)c2)nc1C` (centres unmarked) [Q.266] stands at least 50%.
As for `CCCc1ccc(-c2cc(/N=C/N(C)CC)c(C)nc2OC(C)c2cc(F)cc(F)c2)cc1` (centres unmarked) [Q.267], the pest or weed control at 200 ppm in experiment [2] and in experiment [3] was at least 50% each time.
As for `CCN(C)/C=N/c1cc(Br)c(O[C@H]2CC[C@H](C(C)C)CC2)nc1C` [Q.268], the pest or weed control at 200 ppm in experiment [2] is at least 50%.
As to `CCN(C)/C=N/c1cc(Br)c(OC(C)C[Si](C)(C)C)nc1C` (centres unmarked) [Q.272], the pest or weed control at 200 ppm in experiment [2] and in experiment [3] was at least 50% throughout.
Turning to `CCN(C)/C=N/c1cc(Br)c(OC(C)(C)c2ccccc2)nc1C` [Q.279], the pest or weed control at 200 ppm in experiment [1] and in experiment [2] was at least 50% each time.
Turning to `CCN(C)/C=N/c1cc(Br)c(OC(C)c2cccc(C#Cc3ccccc3)c2)nc1C` (centres unmarked) [Q.312], the pest or weed control at 200 ppm in experiment [2] and in experiment [3] was at least 50% in each case.
Regarding `CCN(C)/C=N/c1cc(Br)c(OC(C)c2ccccc2C#Cc2ccccc2)nc1C` (centres unmarked) [Q.313], the pest or weed control at 200 ppm in experiment [2] is at least 50%.
The same measure, in the same setting: under `CCN(C)/C=N/c1cc(Br)c(OC(C)c2ccccc2CCc2ccccc2)nc1C` (centres unmarked) [Q.314] stands at least 50%; under `CCN(C)/C=N/c1cc(Br)c(OCc2cccc(N)c2)nc1C` [Q.328], at least 50%.
Consider `CCN(C)/C=N/c1cc(C(C)C)c(OC2CCC(C(C)C)CC2)nc1C` (centres unmarked) [Q.343], for which the pest or weed control at 200 ppm in experiment [2] and in experiment [3] was at least 50% throughout.
Consider `CCC(Oc1ccc(/N=C/N(C)C(C)C)c(C)n1)c1ccccc1` (centres unmarked) [Q.348], for which the pest or weed control at 200 ppm in experiment [1] and in experiment [2] was at least 50% in each case.
Regarding `Cc1cc(C)cc(CC(C)Oc2ccc(/N=C/N(C)C(C)C)c(C)n2)c1` (centres unmarked) [Q.362], the pest or weed control at 200 ppm in experiment [1] and in experiment [2] was at least 50% in each case.
Regarding `CCN(C)/C=N/c1ccc(OCc2cc(OC)cc(OC)c2)nc1C` [Q.372], the pest or weed control at 200 ppm in experiment [1] and in experiment [2] was at least 50% throughout.
In the case of `CCN(C)/C=N/c1cc(Br)c(O)nc1C` [Q.379], the pest or weed control at 200 ppm in experiment [2] is at least 50%.
The same measure, in the same setting: the same measure for `CCN(C)/C=N/c1cc(Br)c(OC)nc1C` [Q.387]: at least 50%.
